Measured values taken from the supplement of paper PMC11208160.

Assay: recombinant barcode read abundance after kanamycin selection (control-corrected) (log10(CPM+1)); higher = more efficient recombination; sequences stand for … in AGTGCAGAGAAAATCGGCCAGTTTTCTCTGCCTGCAGTCCGCATGCCGT…AGATTTATGCAGCGGACTGCCTTTCTCCCAAAGTGATAAACCGGACAGTATCATGGACCGGTTTTCCCGGTAATCCGTATTTGCAAGGTTGGTTTCACT; site = the 11-nt target
Procedure, shortened: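 Targets and IS621 bridge RNA target-binding loops were paired in oligos, each with a promoter, a barcode and the J23119-driven first 104 bridge RNA bases. A vector carrying the remaining 73 bp and a T7-inducible recombinase received these by Gibson cloning, and the pool was co-electroporated into E. coli with a donor plasmid. Duplicate plates contained chloramphenicol/ampicillin LB agar (control) or chloramphenicol/ampicillin/kanamycin with 0.1 mM IPTG. Recombination efficiency comes from averaged, control-corrected counts per million of recombinant-junction barcodes, reported as log10(CPM+1).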
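Also: IS621 recombinase and bridge RNA in Escherichia coli cells.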

Row | Sequence | recombinant barcode read abundance (log10)
1 | CACGCTTCTTGGGTTCTAACCTGTTGCTA (site CACGCGTCTCA) | 0.0477
2 | CACGCTTCTTGGGTTCTAACCTGTTGCTA (site CACGCTTCTTA) | 1.01
3 | CACGGTCCTTGGGTTCTAACCTGTTGCCT (site CACGGTCCTAG) | 2.13
4 | CACGGTCCTTGGGTTCTAACCTGTTGCCT (site CTCGGTGCTAG) | 0.0233
5 | CACTCTCCTTGGGTTCTAACCTGTTGCAT (site CACTCTCCTAG) | 0.11
6 | CACTCTCCTTGGGTTCTAACCTGTTGCAT (site CACTCTCCTAT) | 0.728
7 | CACTGGTCTTGGGTTCTAACCTGTTGCCT (site CACTGATCTAG) | 0.532
8 | CACTGGTCTTGGGTTCTAACCTGTTGCCT (site CACTGCTCTAG) | 0.0756
9 | CACTGGTCTTGGGTTCTAACCTGTTGCCT (site CACTGGTCTAG) | 1.12
10 | CACTGGTCTTGGGTTCTAACCTGTTGCCT (site CACTGTTCTAG) | 0.0874
11 | CACTTATCTTGGGTTCTAACCTGTTGCCT (site CACTTAACTAG) | 0.149
12 | CACTTATCTTGGGTTCTAACCTGTTGCCT (site CACTTACCTAG) | 0.308
13 | CACTTATCTTGGGTTCTAACCTGTTGCCT (site CACTTAGCTAG) | 0.0751
14 | CACTTATCTTGGGTTCTAACCTGTTGCCT (site CACTTATCTAG) | 0.549
15 | CACTTGCCTTGGGTTCTAACCTGTTGCCT (site CACTTGACTAG) | 0.0347
16 | CACTTGCCTTGGGTTCTAACCTGTTGCCT (site CACTTGCCTAG) | 0.754
17 | CACTTGCCTTGGGTTCTAACCTGTTGCCT (site CACTTGGCTAG) | 0.0743
18 | CACTTGCCTTGGGTTCTAACCTGTTGCCT (site CACTTGTCTAG) | 0.614
19 | CACTTGGCTTGGGTTCTAACCTGTTGCAG (site CACTGGGCTCT) | 0.468
20 | CACTTGGCTTGGGTTCTAACCTGTTGCAG (site CACTTGGCTCT) | 0.706
21 | CAGAAGCCTTGGGTTCTAACCTGTTGCCT (site AAGAAGCCTAG) | 0.661
22 | CAGAAGCCTTGGGTTCTAACCTGTTGCCT (site CAGAAGCCTAG) | 1.65

Row | Sequence | recombinant barcode read abundance (log10)
23 | CAGAAGCCTTGGGTTCTAACCTGTTGCCT (site GAGAAGCCTAG) | 0.193
24 | CAGAAGCCTTGGGTTCTAACCTGTTGCCT (site TAGAAGCCTAG) | 0.0644
25 | CAGACTTCTTGGGTTCTAACCTGTTGCCT (site CAGACTTCTAG) | 0.473
26 | CAGACTTCTTGGGTTCTAACCTGTTGCCT (site CCGACTTCTAG) | 0.375
27 | CAGACTTCTTGGGTTCTAACCTGTTGCCT (site CGGACTTCTAG) | 0.039
28 | CAGACTTCTTGGGTTCTAACCTGTTGCCT (site CTGACTTCTAG) | 0.0642
29 | CAGAGCCCTTGGGTTCTAACCTGTTGCTG (site CAGAGCCCTCA) | 1.84
30 | CAGAGCCCTTGGGTTCTAACCTGTTGCTG (site CTGAGCCCTCA) | 0.0157
31 | CAGAGGCCTTGGGTTCTAACCTGTTGCCT (site CAGAGGCCTAG) | 0.224
32 | CAGAGGCCTTGGGTTCTAACCTGTTGCCT (site CAGCGGCCTAG) | 0.376
33 | CAGAGGCCTTGGGTTCTAACCTGTTGCCT (site CAGGGGCCTAG) | 0.149
34 | CAGAGGCCTTGGGTTCTAACCTGTTGCCT (site CAGTGGCCTAG) | 0
35 | CAGAGGTCTTGGGTTCTAACCTGTTGCCT (site CAGAGCTCTAG) | 0
36 | CAGAGGTCTTGGGTTCTAACCTGTTGCCT (site CAGAGGTCTAG) | 1.39
37 | CAGCAAGCTTGGGTTCTAACCTGTTGCCT (site CAGCAAGCTAG) | 1.17
38 | CAGCAAGCTTGGGTTCTAACCTGTTGCCT (site CAGTACGCTAG) | 0.0513
39 | CAGCACTCTTGGGTTCTAACCTGTTGCTA (site CAGCACTCTTA) | 2.12
40 | CAGCACTCTTGGGTTCTAACCTGTTGCTA (site CAGGACTCTAA) | 0.201
41 | CAGCATACTTGGGTTCTAACCTGTTGCCT (site CAGCATACTAG) | 1.74
42 | CAGCATACTTGGGTTCTAACCTGTTGCCT (site CCGCATACTAG) | 0.159
43 | CAGCATACTTGGGTTCTAACCTGTTGCCT (site CGGCATACTAG) | 0.215
44 | CAGCATACTTGGGTTCTAACCTGTTGCCT (site CTGCATACTAG) | 0.0255

Row | Sequence | recombinant barcode read abundance (log10)
45 | CAGCCCTCTTGGGTTCTAACCTGTTGCTA (site CAGCCCTCTTA) | 2.75
46 | CAGCCCTCTTGGGTTCTAACCTGTTGCTA (site CCGCCCTCTAA) | 0.188
47 | CAGCCTTCTTGGGTTCTAACCTGTTGCTT (site CAGCCTTCTAA) | 0.718
48 | CAGCCTTCTTGGGTTCTAACCTGTTGCTT (site CATCCTCCTAA) | 0.0417
49 | CAGCGTGCTTGGGTTCTAACCTGTTGCCT (site CAGCGTGCTAG) | 0.838
50 | CAGCGTGCTTGGGTTCTAACCTGTTGCCT (site CCGCGTGCTAG) | 0.318
51 | CAGCGTGCTTGGGTTCTAACCTGTTGCCT (site CGGCGTGCTAG) | 0.216
52 | CAGCGTGCTTGGGTTCTAACCTGTTGCCT (site CTGCGTGCTAG) | 0.612
53 | CAGGAACCTTGGGTTCTAACCTGTTGCCT (site AAGGAACCTAG) | 0.15
54 | CAGGAACCTTGGGTTCTAACCTGTTGCCT (site CAGGAACCTAG) | 2.01
55 | CAGGAACCTTGGGTTCTAACCTGTTGCCT (site GAGGAACCTAG) | 0.235
56 | CAGGAACCTTGGGTTCTAACCTGTTGCCT (site TAGGAACCTAG) | 0.216
57 | CAGGCCACTTGGGTTCTAACCTGTTGCCT (site CAGGCCACTAG) | 0.945
58 | CAGGCCACTTGGGTTCTAACCTGTTGCCT (site CCGGCCACTAG) | 0.0473
59 | CAGGCCACTTGGGTTCTAACCTGTTGCCT (site CGGGCCACTAG) | 1.04
60 | CAGGCCACTTGGGTTCTAACCTGTTGCCT (site CTGGCCACTAG) | 0.357
61 | CAGTACTCTTGGGTTCTAACCTGTTGCCT (site CAGTAATCTAG) | 0.122
62 | CAGTACTCTTGGGTTCTAACCTGTTGCCT (site CAGTACTCTAG) | 2.29
63 | CAGTACTCTTGGGTTCTAACCTGTTGCCT (site CAGTAGTCTAG) | 0.1
64 | CAGTACTCTTGGGTTCTAACCTGTTGCCT (site CAGTATTCTAG) | 0.0289
65 | CAGTGGCCTTGGGTTCTAACCTGTTGCCT (site CAGAGGCCTAG) | 0.0837
66 | CAGTGGCCTTGGGTTCTAACCTGTTGCCT (site CAGCGGCCTAG) | 0.124

Row | Sequence | recombinant barcode read abundance (log10)
67 | CAGTGGCCTTGGGTTCTAACCTGTTGCCT (site CAGGGGCCTAG) | 0.234
68 | CAGTGGCCTTGGGTTCTAACCTGTTGCCT (site CAGTGGCCTAG) | 0.132
69 | CAGTTCGCTTGGGTTCTAACCTGTTGCCT (site CAGTTAGCTAG) | 0.141
70 | CAGTTCGCTTGGGTTCTAACCTGTTGCCT (site CAGTTCGCTAG) | 1.6
71 | CAGTTCGCTTGGGTTCTAACCTGTTGCCT (site CAGTTGGCTAG) | 0.0461
72 | CAGTTCGCTTGGGTTCTAACCTGTTGCCT (site CAGTTTGCTAG) | 0.0585
73 | CAGTTTGCTTGGGTTCTAACCTGTTGCCT (site CAGTTAGCTAG) | 0.102
74 | CAGTTTGCTTGGGTTCTAACCTGTTGCCT (site CAGTTCGCTAG) | 0.172
75 | CAGTTTGCTTGGGTTCTAACCTGTTGCCT (site CAGTTGGCTAG) | 0
76 | CAGTTTGCTTGGGTTCTAACCTGTTGCCT (site CAGTTTGCTAG) | 0.512
77 | CATAACGCTTGGGTTCTAACCTGTTGCCT (site CATAACGCTAG) | 1.18
78 | CATAACGCTTGGGTTCTAACCTGTTGCCT (site GCATCTACTTA) | 0.102
79 | CATAGAGCTTGGGTTCTAACCTGTTGCCT (site CATAGAGCTAG) | 0.648
80 | CATAGAGCTTGGGTTCTAACCTGTTGCCT (site CATAGGGCTCG) | 0.215
81 | CATAGGGCTTGGGTTCTAACCTGTTGCCG (site CATAGAGCTAG) | 0.0324
82 | CATAGGGCTTGGGTTCTAACCTGTTGCCG (site CATAGGGCTCG) | 1.03
83 | CATAGTCCTTGGGTTCTAACCTGTTGCCA (site CATAGTCCTTG) | 0.299
84 | CATAGTCCTTGGGTTCTAACCTGTTGCCA (site GTACAATCTCT) | 0.112
85 | CATCAGCCTTGGGTTCTAACCTGTTGCGT (site CATCAGCCTAC) | 1.63
86 | CATCAGCCTTGGGTTCTAACCTGTTGCGT (site TATCAGCCTAA) | 0.174
